Source: paper PMC3129543 (Molecular informatics, 2011)
Where two headings read alike, the source gives them in different places.

What was measured:
[1] = target: T1, glutamate racemase from Bacillus subtilis (RacE) (Bacillus subtilis, UniProt P94556); details: BsGR; presented previously; cited from earlier work
[2] = target: T1, glutamate racemase from Bacillus subtilis (RacE); format: biochemical
[3] = 1 and derivatives thereof; target not determined; cited from earlier work
[4] = 1 and derivatives thereof; cited from earlier work

T1 sequence (P94556 whole entry): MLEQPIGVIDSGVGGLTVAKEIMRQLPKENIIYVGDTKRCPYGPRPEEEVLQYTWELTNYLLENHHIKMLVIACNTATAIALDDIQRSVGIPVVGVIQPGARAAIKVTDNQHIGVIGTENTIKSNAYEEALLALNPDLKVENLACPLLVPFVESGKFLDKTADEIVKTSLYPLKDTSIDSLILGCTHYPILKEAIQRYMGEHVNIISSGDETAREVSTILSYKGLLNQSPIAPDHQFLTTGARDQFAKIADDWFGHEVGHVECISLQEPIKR

In the case of `O=S(=O)(O)c1ccc(O)c(S(=O)(=O)O)c1` [Compound 3, 4-Hydroxy-1,3-benzenedisulfonic acid], the mode of inhibition [1] is given as “competitive inhibitors”.
For `O=S(=O)(O)c1nc2ccccc2[nH]1` [Compound 1, benzimidazole-2-sulfonic acid], the ligand efficiency [2] is listed as 0.53 kcal/mol/heavy atom, the mode of inhibition ([2]; verified by global fitting to varying inhibition models) is listed as “competitive inhibitor” and the “antibacterial and antifungal activity” value [3] is listed as “antibacterial and antifungal activity”. The toxicity [4] was “low toxicity”.
In the case of `O=C(O)c1cccc(C(=O)O)n1` [Compound 9, dipicolinic acid], the mode of inhibition [1] is listed as “competitive inhibitors”.
In the case of `O=c1c(O)c(O)c(=O)c1=O` [Compound 2, Croconic acid], the mode of inhibition [1] is listed as “competitive inhibitors”.
